# Source: patent US12479820B2, “Pyridin-3-yl derivatives” (Idorsia Pharmaceuticals Ltd, priority 2019, dated 2025)
# Target: T1, human LPA1 receptor (Homo sapiens, UniProt Q92633)
# T1 construct: TEV protease site; Gal4-VP16 transcription factor; host or cells: Tango EDG2-bla U2OS cells
# Assay: Beta-arrestin recruitment assay to determine IC50 values for human LPAR1
# Format: cell-based
# Details: Tango EDG2-bla U2OS cells, antagonist assay, LPA 18:1 500 nM final
# Procedure, shortened: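 Tango EDG2-bla U2OS cells were preincubated 30 min at 37 °C with compound. They were then stimulated with 500 nM (final) LPA 18:1 for 16 h. β-Lactamase reporter read by LiveBLAzer FRET substrate (2 h) as the 460/530 nm ratio; IC50 from 4-parameter logistic fit.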
# T1 sequence (Q92633 whole entry, the tested form may be a part): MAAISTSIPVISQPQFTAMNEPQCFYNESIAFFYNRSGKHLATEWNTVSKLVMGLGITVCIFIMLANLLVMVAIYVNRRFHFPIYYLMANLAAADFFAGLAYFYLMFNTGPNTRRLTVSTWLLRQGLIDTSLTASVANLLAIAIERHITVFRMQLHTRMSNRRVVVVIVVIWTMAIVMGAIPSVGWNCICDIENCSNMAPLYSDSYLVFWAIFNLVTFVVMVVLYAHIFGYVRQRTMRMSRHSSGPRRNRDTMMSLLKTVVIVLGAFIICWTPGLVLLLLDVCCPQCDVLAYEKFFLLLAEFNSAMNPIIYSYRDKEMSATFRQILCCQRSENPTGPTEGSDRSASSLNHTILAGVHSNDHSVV
row,SMILES,IC50
1,"COc1cc(Cl)ncc1NC(=O)C1(c2ccccc2C(C)C)CN(C(=O)CNS(C)(=O)=O)C1 [Example 19-15, N-(6-chloro-4-methoxypyridin-3-yl)-3-(2-isopropylphenyl)-1-((methylsulfonyl)glycyl)azetidine-3-carboxamide]",0.037 µM
2,"COc1cc(Cl)ncc1NC(=O)C1(c2ccccc2C(C)C)CN(C(=O)CS(C)(=O)=O)C1 [Example 19-16, N-(6-chloro-4-methoxypyridin-3-yl)-3-(2-isopropylphenyl)-1-(2-(methylsulfonyl)acetyl)azetidine-3-carboxamide]",0.054 µM
3,"COC(=O)C(C)(C)CC(=O)N1CC(C(=O)Nc2cnc(Cl)cc2OC)(c2ccccc2C(C)C)C1 [Example 19-17, methyl 4-(3-((6-chloro-4-methoxypyridin-3-yl)carbamoyl)-3-(2-isopropylphenyl)azetidin-1-yl)-2,2-dimethyl-4-oxobutanoate]",0.043 µM
4,"COc1cc(Cl)ncc1NC(=O)C1(c2ccccc2C(C)C)CN(C(=O)CC(C)(C)C(=O)O)C1 [Example 19-18, 4-(3-((6-chloro-4-methoxypyridin-3-yl)carbamoyl)-3-(2-isopropylphenyl)azetidin-1-yl)-2,2-dimethyl-4-oxobutanoic acid]",0.088 µM
5,"COc1cc(Br)ncc1NC(=O)C1(c2ccccc2C(C)C)CN(C(=O)CC(C)(C)C(=O)O)C1 [Example 19-19, 4-(3-((6-bromo-4-methoxypyridin-3-yl)carbamoyl)-3-(2-isopropylphenyl)azetidin-1-yl)-2,2-dimethyl-4-oxobutanoic acid]",0.021 µM
6,"CCOc1cc(Cl)ncc1NC(=O)C1(c2ccccc2C(C)C)CN(C(=O)CC(C)(C)C(=O)OC)C1 [Example 19-21, methyl 4-(3-((6-chloro-4-ethoxypyridin-3-yl)carbamoyl)-3-(2-isopropylphenyl)azetidin-1-yl)-2,2-dimethyl-4-oxobutanoate]",0.072 µM
7,"CCOc1cc(Cl)ncc1NC(=O)C1(c2ccccc2C(C)C)CN(C(=O)CC(C)(C)C(=O)O)C1 [Example 19-22, 4-(3-((6-chloro-4-ethoxypyridin-3-yl)carbamoyl)-3-(2-isopropylphenyl)azetidin-1-yl)-2,2-dimethyl-4-oxobutanoic acid]",0.012 µM
8,"COc1cc(F)ncc1NC(=O)C1(c2ccccc2C(C)C)CN(C(=O)CC(C)(C)C(=O)O)C1 [Example 19-23, 4-(3-((6-fluoro-4-methoxypyridin-3-yl)carbamoyl)-3-(2-isopropylphenyl)azetidin-1-yl)-2,2-dimethyl-4-oxobutanoic acid]",0.1 µM
9,"COc1cc(Cl)ncc1NC(=O)C1(c2ccccc2C(C)C)CN(S(C)(=O)=O)C1 [Example 20-1, N-(6-chloro-4-methoxypyridin-3-yl)-3-(2-isopropylphenyl)-1-(methylsulfonyl)azetidine-3-carboxamide]",0.011 µM
10,"COCCS(=O)(=O)N1CC(C(=O)Nc2cnc(Cl)cc2OC)(c2ccccc2C(C)C)C1 [Example 20-2, N-(6-chloro-4-methoxypyridin-3-yl)-3-(2-isopropylphenyl)-1-((2-methoxyethyl)sulfonyl)azetidine-3-carboxamide]",0.608 µM
11,"COc1cc(Cl)ncc1NC(=O)C1(c2ccccc2C(C)C)CN(S(=O)(=O)CCO)C1 [Example 20-3, N-(6-chloro-4-methoxypyridin-3-yl)-1-((2-hydroxyethyl)sulfonyl)-3-(2-isopropylphenyl)azetidine-3-carboxamide]",0.021 µM
12,"COc1cc(Cl)ncc1NC(=O)C1(c2ccccc2C(C)C)CN(S(=O)(=O)CCN(C)C)C1 [Example 20-4, N-(6-chloro-4-methoxypyridin-3-yl)-1-((2-(dimethylamino)ethyl)sulfonyl)-3-(2-isopropylphenyl)azetidine-3-carboxamide]",0.472 µM
13,"COc1cc(Cl)ncc1NC(=O)C1(c2ccccc2C(C)C)CN(S(=O)(=O)C2COC2)C1 [Example 20-5, N-(6-chloro-4-methoxypyridin-3-yl)-3-(2-isopropylphenyl)-1-(oxetan-3-ylsulfonyl)azetidine-3-carboxamide]",0.034 µM
14,"COc1cc(F)ncc1NC(=O)C1(c2ccccc2C(C)C)CN(S(N)(=O)=O)C1 [Example 21-1, N-(6-fluoro-4-methoxypyridin-3-yl)-3-(2-isopropylphenyl)-1-sulfamoylazetidine-3-carboxamide]",0.017 µM
15,"CCOc1cc(Cl)ncc1NC(=O)C1(c2ccccc2C(C)C)CN(S(N)(=O)=O)C1 [Example 21-3, N-(6-chloro-4-ethoxypyridin-3-yl)-3-(2-isopropylphenyl)-1-sulfamoylazetidine-3-carboxamide]",0.002 µM
16,"CC(C)Oc1cc(Cl)ncc1NC(=O)C1(c2ccccc2C(C)C)CN(S(N)(=O)=O)C1 [Example 21-4, N-(6-chloro-4-isopropoxypyridin-3-yl)-3-(2-isopropylphenyl)-1-sulfamoylazetidine-3-carboxamide]",0.001 µM
17,"CC(C)c1ccccc1C1(C(=O)Nc2cnc(Cl)cc2OC2CC2)CN(S(N)(=O)=O)C1 [Example 21-5, N-(6-chloro-4-cyclopropoxypyridin-3-yl)-3-(2-isopropylphenyl)-1-sulfamoylazetidine-3-carboxamide]",0.006 µM
18,"COCCOc1cc(Cl)ncc1NC(=O)C1(c2ccccc2C(C)C)CN(S(N)(=O)=O)C1 [Example 21-6, N-(6-chloro-4-(2-methoxyethoxy)pyridin-3-yl)-3-(2-isopropylphenyl)-1-sulfamoylazetidine-3-carboxamide]",0.044 µM
19,"COC[C@H](C)Oc1cc(Cl)ncc1NC(=O)C1(c2ccccc2C(C)C)CN(S(N)(=O)=O)C1 [Example 21-7, (S)-N-(6-chloro-4-((1-methoxypropan-2-yl)oxy)pyridin-3-yl)-3-(2-isopropylphenyl)-1-sulfamoylazetidine-3-carboxamide]",0.003 µM
20,"COc1cc(Cl)ncc1NC(=O)C1(c2ccccc2C(C)C)CCN(S(N)(=O)=O)CC1 [Example 21-8, N-(6-chloro-4-methoxypyridin-3-yl)-4-(2-isopropylphenyl)-1-sulfamoylpiperidine-4-carboxamide]",0.016 µM
21,"COc1cc(Br)ncc1NC(=O)C1(c2ccccc2C(C)C)CN(S(N)(=O)=O)C1 [Example 21-9, N-(6-bromo-4-methoxypyridin-3-yl)-3-(2-isopropylphenyl)-1-sulfamoylazetidine-3-carboxamide]",0.002 µM
22,"COc1cc(C)ncc1NC(=O)C1(c2ccccc2C(C)C)CN(S(N)(=O)=O)C1 [Example 21-10, 3-(2-isopropylphenyl)-N-(4-methoxy-6-methylpyridin-3-yl)-1-sulfamoylazetidine-3-carboxamide]",0.037 µM
23,"COc1cc(C(F)(F)F)ncc1NC(=O)C1(c2ccccc2C(C)C)CN(S(N)(=O)=O)C1 [Example 21-11, 3-(2-isopropylphenyl)-N-(4-methoxy-6-(trifluoromethyl)pyridin-3-yl)-1-sulfamoylazetidine-3-carboxamide]",0.042 µM
24,"CNS(=O)(=O)N1CC(C(=O)Nc2cnc(Cl)cc2OC)(c2ccccc2C(C)C)C1 [Example 21-12, N-(6-chloro-4-methoxypyridin-3-yl)-3-(2-isopropylphenyl)-1-(N-methylsulfamoyl)azetidine-3-carboxamide]",0.019 µM
25,"COc1cc(Cl)ncc1NC(=O)C1(c2ccccc2C(C)C)CN(S(=O)(=O)NC2CC2)C1 [Example 21-13, N-(6-chloro-4-methoxypyridin-3-yl)-1-(N-cyclopropylsulfamoyl)-3-(2-isopropylphenyl)azetidine-3-carboxamide]",0.022 µM
